Data reported in publication PMC9575579 (European Journal of Medicinal Chemistry, 2022).
Marks after values point to notes of the source that are not given here.

Tests used:
Vero E6-GFP cells = conditions: African green monkey, 2 µM
SARS-CoV-2 = assay: microbe, parasite or virus in culture; conditions: for EC50: Severe acute respiratory syndrome coronavirus 2, Vero, 72 h
SARS-CoV-2 M^pro = SARS-CoV-2 M^pro (Severe acute respiratory syndrome coronavirus 2, UniProt P0DTD1); assay: biochemical; format: biochemical; conditions: for IC50: M^pro SARS-COV-2 IC50
MERS-CoV M^pro = MERS-CoV M^pro (Middle East respiratory syndrome-related coronavirus, UniProt K9N7C7); assay: biochemical; conditions: for inhibition at 30 µM: read-out: % of inhibition of the M^pro at 30 μM (MERS)
Sequence of MERS-CoV M^pro (K9N7C7 3248-3553 limits assumed): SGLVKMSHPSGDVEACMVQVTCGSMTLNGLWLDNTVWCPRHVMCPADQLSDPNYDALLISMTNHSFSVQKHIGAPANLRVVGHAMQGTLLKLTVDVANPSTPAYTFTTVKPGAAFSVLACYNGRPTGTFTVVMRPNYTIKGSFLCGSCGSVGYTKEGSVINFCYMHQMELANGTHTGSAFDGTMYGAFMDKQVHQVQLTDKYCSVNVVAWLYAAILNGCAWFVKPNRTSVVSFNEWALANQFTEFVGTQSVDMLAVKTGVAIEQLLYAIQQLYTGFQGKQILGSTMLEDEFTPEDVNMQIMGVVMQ

O=C(NCCc1ccccc1)C(=O)[C@H](C[C@@H]1CCNC1=O)NC(=O)[C@@H]1CCCN1C(=O)OCc1ccccc1 [9a, (S)-benzyl2-((S)-3,4-dioxo-1-((S)-2-oxopyrrolidin-3-yl)-4-(phenethylamino)butan-2ylcarbamoyl)pyrrolidine-1-carboxylate]
Residual cell viability at the highest concentration tested (Vero E6-GFP cells): >100 (100%) ^e | EC50 + CP100356 (2 μM) (SARS-CoV-2): did not change

O=C(NCCc1ccccc1F)C(=O)[C@H](C[C@@H]1CCNC1=O)NC(=O)[C@@H]1CCCN1C(=O)OCc1ccccc1 [9b, (S)-benzyl2-((S)-4-(2-fluorophenethylamino)-3,4-dioxo-1-((S)-2-oxopyrrolidin-3-yl)butan-2-ylcarbamoyl)pyrrolidine-1-carboxylate]
M^pro SARS-COV-2 IC50 (SARS-CoV-2 M^pro): submicromolar range

COc1ccccc1CCNC(=O)C(=O)[C@H](C[C@@H]1CCNC1=O)NC(=O)[C@@H]1CCCN1C(=O)OCc1ccccc1 [9c, (S)-benzyl2-((S)-4-(2-methoxyphenethylamino)-3,4-dioxo-1-((S)-2-oxopyrrolidin-3-yl)butan-2-ylcarbamoyl)pyrrolidine-1-carboxylate]
M^pro SARS-COV-2 IC50 (SARS-CoV-2 M^pro): submicromolar range

O=C(NCc1ccccc1)C(=O)[C@H](C[C@@H]1CCNC1=O)NC(=O)[C@@H]1CCCN1C(=O)COc1ccc(Cl)cc1Cl [9d, (S)–N-((S)-4-(benzylamino)-3,4-dioxo-1-((S)-2-oxopyrrolidin-3-yl)butan-2-yl)-1-(2-(2,4-dichlorophenoxy)acetyl)pyrrolidine-2-carboxamide]
Residual cell viability at the highest concentration tested (Vero E6-GFP cells): >100 (100%) ^e

O=C(NCCc1ccccc1)C(=O)[C@H](C[C@@H]1CCNC1=O)NC(=O)[C@@H]1CCCN1C(=O)COc1ccc(Cl)cc1Cl [9e, (S)-1-(2-(2,4-dichlorophenoxy)acetyl)-N-((S)-3,4-dioxo-1-((S)-2-oxopyrrolidin-3-yl)-4-(phenethylamino)butan-2-yl)pyrrolidine-2-carboxamide]
Residual cell viability at the highest concentration tested (Vero E6-GFP cells): >100 (100%) ^e

COc1ccc(CNC(=O)C(=O)[C@H](C[C@@H]2CCNC2=O)NC(=O)[C@@H]2CCCN2C(=O)COc2ccc(Cl)cc2Cl)c(OC)c1 [9f, (S)-1-(2-(2,4-dichlorophenoxy)acetyl)-N-((S)-4-(2,4-dimethoxybenzylamino)-3,4-dioxo-1-((S)-2-oxopyrrolidin-3-yl)butan-2-yl)pyrrolidine-2-carboxamide]
IC50 (MERS-CoV M^pro): > 30 µM | inhibition at 30 µM (MERS-CoV M^pro): 59% | IC50 (SARS-CoV-2 M^pro): 1.93 ± 0.16 µM | EC50 (SARS-CoV-2): > 100 µM

O=C(NCc1ccccc1C(F)(F)F)C(=O)[C@H](C[C@@H]1CCNC1=O)NC(=O)[C@@H]1CCCN1C(=O)COc1ccc(Cl)cc1Cl [9h, (S)-1-(2-(2,4-dichlorophenoxy)acetyl)-N-((S)-3,4-dioxo-1-((S)-2-oxopyrrolidin-3-yl)-4-(2-(trifluoromethyl)benzylamino)butan-2-yl)pyrrolidine-2-carboxamide]
IC50 (MERS-CoV M^pro): > 30 µM | inhibition at 30 µM (MERS-CoV M^pro): 73% | IC50 (SARS-CoV-2 M^pro): > 30 µM | inhibition at 30 µM (SARS-CoV-2 M^pro; read-out: % of inhibition of the M^pro at 30 μM (SARS-CoV-2)): 57% | EC50 (SARS-CoV-2): > 100 µM
